The values that follow come from ChEMBL document CHEMBL1201862, “PubChem BioAssay data set” (2004).

Some targets named below: Cytochrome P450 2C9 (Homo sapiens, UniProt P11712); Cytochrome P450 3A4 (Homo sapiens, UniProt P08684); Cytochrome P450 2D6 (Homo sapiens, UniProt P10635).
The next data set has as its target T1, CAAX prenyl protease 2 (Saccharomyces cerevisiae S288c, UniProt Q03530).
T1 sequence (Q03530 whole entry): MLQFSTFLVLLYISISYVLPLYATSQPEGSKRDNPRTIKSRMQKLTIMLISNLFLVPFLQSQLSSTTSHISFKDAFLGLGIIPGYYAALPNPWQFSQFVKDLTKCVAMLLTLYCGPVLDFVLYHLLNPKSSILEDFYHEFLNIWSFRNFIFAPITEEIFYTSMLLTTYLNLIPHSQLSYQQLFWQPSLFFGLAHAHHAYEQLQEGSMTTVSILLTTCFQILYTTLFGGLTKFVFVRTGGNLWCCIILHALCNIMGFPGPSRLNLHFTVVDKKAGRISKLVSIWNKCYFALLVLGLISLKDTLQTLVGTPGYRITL
It counts as biochemical.

Data set [1] can be described thus: C. albicans growth with fluconazole, confirmation, fluorescence, retest (AID 2467). It counts as functional, cell-based.
In a further data set the target is Cytochrome P450 2C19 (Homo sapiens, UniProt P33261). Kind of data set: Cytochrome panel assay with activity outcomes. Panel member name: p450-cyp2c19 Compounds with AC50 equal or less than 10 uM are considered active. In kind it is functional.
Chain of Cytochrome P450 2C19 (P33261 whole entry): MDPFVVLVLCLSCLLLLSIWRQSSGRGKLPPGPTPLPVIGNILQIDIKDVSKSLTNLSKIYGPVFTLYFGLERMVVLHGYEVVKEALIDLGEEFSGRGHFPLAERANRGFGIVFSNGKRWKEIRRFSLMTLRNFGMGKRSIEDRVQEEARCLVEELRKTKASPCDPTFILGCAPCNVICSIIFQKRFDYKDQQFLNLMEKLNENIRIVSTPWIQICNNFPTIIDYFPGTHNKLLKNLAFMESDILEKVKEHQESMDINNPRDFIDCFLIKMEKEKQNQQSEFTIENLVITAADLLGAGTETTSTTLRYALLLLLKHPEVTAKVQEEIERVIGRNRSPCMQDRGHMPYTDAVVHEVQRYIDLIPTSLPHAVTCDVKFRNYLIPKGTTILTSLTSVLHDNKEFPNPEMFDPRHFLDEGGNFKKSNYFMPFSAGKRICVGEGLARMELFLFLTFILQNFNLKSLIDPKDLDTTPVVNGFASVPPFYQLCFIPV
Data set [2] is described as follows: NIH-3T3 fibroblast cytotoxicity, dose response, cytotoxicity control, cell-based, fluorescence, Alamar Blue, secondary assay (AID 2327).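 Further: NIH-3T3 mouse fibroblasts cultured with fluconazole at 8 µg/mL.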 In kind it is functional. On the technique in general: Alamar Blue is a resazurin reagent that responds to reducing activity.
A further data set concerns Vero. Kind of data set: cells. In kind it is functional. The following applies: Chlorocebus sabaeus.
The nature of data set [3]: inhibitors of intracellular T. cruzi replication, confirmation, NIH3T3 host cells, beta-gal luminescence (AID 2044).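 Further: intracellular parasites grown in NIH/3T3 mouse fibroblasts as host cells; luminescent beta-galactosidase reporter signal from transgenic T. cruzi replicating inside host cells; inhibitors lower the luminescence signal.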 In kind it is functional, cell-based.
Data set [4] addresses T2, Short transient receptor potential channel 4 (Mus musculus, UniProt Q9QUQ5).
T2 sequence (Q9QUQ5 whole entry): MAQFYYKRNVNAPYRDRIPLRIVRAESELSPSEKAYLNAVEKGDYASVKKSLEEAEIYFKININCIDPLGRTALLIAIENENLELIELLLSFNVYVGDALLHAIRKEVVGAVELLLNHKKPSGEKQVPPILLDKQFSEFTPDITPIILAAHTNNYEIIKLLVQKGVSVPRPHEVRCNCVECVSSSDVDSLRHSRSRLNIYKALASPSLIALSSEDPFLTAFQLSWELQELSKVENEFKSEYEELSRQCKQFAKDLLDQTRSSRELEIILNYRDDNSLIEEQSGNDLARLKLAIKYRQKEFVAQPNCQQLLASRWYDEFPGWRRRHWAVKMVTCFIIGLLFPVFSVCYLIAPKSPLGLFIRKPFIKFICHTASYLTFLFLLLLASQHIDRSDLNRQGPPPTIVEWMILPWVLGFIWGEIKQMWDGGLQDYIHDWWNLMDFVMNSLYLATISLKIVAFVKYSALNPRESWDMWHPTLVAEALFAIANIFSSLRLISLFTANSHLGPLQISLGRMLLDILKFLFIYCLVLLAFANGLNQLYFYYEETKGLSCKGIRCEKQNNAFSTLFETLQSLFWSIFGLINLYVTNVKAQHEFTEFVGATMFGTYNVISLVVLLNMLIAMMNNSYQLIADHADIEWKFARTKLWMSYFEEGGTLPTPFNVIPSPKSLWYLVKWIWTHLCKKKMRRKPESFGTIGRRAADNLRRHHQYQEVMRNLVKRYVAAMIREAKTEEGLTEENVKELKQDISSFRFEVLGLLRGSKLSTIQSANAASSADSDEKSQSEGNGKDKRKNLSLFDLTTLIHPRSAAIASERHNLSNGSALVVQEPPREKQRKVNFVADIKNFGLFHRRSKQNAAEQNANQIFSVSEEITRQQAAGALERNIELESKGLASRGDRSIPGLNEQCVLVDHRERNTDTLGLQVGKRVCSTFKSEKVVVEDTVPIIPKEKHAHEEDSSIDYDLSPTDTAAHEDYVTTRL
Kind of data set: mouse TRPC4 channel activators, dose response, cell-based, HEK293 TRPC4/mu-opioid, Fluo-4 calcium (AID 434937). In kind it is functional.

A short description of data set [5]: cytotoxicity toward NIH3T3 fibroblasts, dose response, counter-screen, cell-based, ATP luminescence, mouse fibroblasts (AID 2010).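 Further: cells exposed to compound for about 90 hours before reading.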 In kind it is functional. A general note: The purpose of a counterscreen is to sort out artefacts and off-target activity.
Data set [6] addresses Heat shock protein HSP 90-alpha (Homo sapiens, UniProt P07900). In kind it is functional, organism-based.
For data set [7], the target named is T3, Heat shock factor protein 1 (Mus musculus, UniProt P38532).
T3 sequence (P38532 whole entry): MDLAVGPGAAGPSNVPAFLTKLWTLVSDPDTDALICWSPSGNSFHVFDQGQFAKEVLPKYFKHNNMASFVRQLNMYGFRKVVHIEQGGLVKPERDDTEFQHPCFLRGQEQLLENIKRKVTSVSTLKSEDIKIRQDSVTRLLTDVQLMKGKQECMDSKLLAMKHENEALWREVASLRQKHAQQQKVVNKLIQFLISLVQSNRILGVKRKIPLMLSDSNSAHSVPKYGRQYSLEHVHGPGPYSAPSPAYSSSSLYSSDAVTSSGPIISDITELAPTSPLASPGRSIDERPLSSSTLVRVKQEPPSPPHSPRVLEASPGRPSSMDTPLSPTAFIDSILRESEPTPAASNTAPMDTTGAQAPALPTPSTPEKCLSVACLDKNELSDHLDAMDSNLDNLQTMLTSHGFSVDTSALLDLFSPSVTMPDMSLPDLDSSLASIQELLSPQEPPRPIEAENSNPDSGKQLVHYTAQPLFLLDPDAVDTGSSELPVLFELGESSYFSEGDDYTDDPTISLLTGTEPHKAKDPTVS
Kind of data set: inhibition of MG132-induced HSE-luciferase signal, confirmation, cell-based, NIH3T3, luminescence, dose retest (AID 2382).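 Further: NIH3T3 fibroblasts with HSF1-driven luciferase reporter stressed by proteasome inhibitor MG132; luminescence from HSF1-driven luciferase expression after 8 hours of MG132 stress.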 It counts as functional.

In data set [8] the target is Luciferin 4-monooxygenase (Photinus pyralis, UniProt P08659). The experiment in a line: firefly luciferase enzyme inhibitors, dose response, biochemical, luminescence (AID 1891).
Chain of Luciferin 4-monooxygenase (P08659 whole entry): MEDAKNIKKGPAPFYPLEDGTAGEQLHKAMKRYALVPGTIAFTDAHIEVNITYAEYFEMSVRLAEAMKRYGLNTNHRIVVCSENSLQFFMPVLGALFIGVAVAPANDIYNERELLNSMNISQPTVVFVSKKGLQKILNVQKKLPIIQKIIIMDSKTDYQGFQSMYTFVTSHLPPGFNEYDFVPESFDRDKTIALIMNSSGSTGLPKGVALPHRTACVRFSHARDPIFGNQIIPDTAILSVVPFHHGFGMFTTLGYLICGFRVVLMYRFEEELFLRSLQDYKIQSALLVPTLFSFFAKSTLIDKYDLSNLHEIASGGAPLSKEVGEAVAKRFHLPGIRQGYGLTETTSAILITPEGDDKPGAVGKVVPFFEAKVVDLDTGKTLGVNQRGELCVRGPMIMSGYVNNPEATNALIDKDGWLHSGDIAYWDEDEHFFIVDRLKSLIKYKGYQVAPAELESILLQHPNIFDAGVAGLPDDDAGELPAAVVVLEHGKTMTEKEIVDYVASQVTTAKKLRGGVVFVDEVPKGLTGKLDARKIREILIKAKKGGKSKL
In a further data set the target is T4, Protein skinhead-1 (Caenorhabditis elegans, UniProt P34707).
T4 sequence (P34707 whole entry): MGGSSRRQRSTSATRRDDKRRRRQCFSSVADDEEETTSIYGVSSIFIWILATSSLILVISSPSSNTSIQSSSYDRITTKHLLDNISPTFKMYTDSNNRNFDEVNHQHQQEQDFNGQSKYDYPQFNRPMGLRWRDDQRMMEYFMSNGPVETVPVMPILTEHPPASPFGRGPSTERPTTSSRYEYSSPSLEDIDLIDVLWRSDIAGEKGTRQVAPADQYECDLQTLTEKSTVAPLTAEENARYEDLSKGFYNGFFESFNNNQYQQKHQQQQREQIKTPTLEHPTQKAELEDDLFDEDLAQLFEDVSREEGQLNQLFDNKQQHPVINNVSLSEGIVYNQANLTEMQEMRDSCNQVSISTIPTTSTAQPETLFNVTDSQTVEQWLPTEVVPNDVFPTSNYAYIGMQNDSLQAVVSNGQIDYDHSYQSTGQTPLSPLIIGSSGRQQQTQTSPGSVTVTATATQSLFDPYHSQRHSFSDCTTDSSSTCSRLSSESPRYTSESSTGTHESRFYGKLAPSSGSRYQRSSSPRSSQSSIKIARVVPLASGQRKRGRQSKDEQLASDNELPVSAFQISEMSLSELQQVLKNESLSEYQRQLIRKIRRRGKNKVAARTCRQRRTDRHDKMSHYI
It counts as functional.

For a further data set, the system named is HEK293. Kind of data set: inhibitors of LMP1-driven NF-kB reporter, dose response, cell-based, HEK293, luciferase, cherry-pick (AID 588343). It counts as functional. The following applies: Homo sapiens.
Data set [9] can be described thus: Luminescence Cell-Based Dose Confirmation HTS to Identify Inhibitors of Platelet Dense Granule Release. [Related pubchem assays: 1663 (Primary HTS), 1678 (Summary of Project)]. It counts as functional.
Data set [10] is described as follows: cytotoxicity toward DRD oncogenic fibroblasts, dose response, cell-based, non-viral oncogenic, luminescence (AID 1934). The following applies: Homo sapiens. It counts as functional.
Data set [11] relates to BJ. Kind of data set: cytotoxicity toward BJ-TERT-LT-ST fibroblasts, dose response, cell-based, RAS-independent, luminescence (AID 1935).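 Further: BJ fibroblasts immortalized with TERT plus LT and ST oncogenes.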 It counts as functional. The following applies: Homo sapiens.
Data set [12] has as its system BJ. The experiment in a line: cells. It counts as functional, cell-based. The note with it: Homo sapiens.
Data set [13] has as its system BJ. Kind of data set: cytotoxicity toward BJ-TERT fibroblasts, dose response, cell-based, RAS-independent, luminescence (AID 1933). It counts as functional. The following applies: Homo sapiens.

Broadly, the AC50 is the midpoint of the concentration-response curve, whichever way the signal moves. As usually defined, the EC50 is the concentration needed to bring the measured effect to its halfway point. Broadly, the CC50 is the concentration giving 50% cytotoxicity. One may read the IC50 as the concentration that inhibits the measured activity by half.

SMILES strings stand for the structures. Activity calls are given as the source filed them.

Chain of Cytochrome P450 2C9 (P11712 whole entry): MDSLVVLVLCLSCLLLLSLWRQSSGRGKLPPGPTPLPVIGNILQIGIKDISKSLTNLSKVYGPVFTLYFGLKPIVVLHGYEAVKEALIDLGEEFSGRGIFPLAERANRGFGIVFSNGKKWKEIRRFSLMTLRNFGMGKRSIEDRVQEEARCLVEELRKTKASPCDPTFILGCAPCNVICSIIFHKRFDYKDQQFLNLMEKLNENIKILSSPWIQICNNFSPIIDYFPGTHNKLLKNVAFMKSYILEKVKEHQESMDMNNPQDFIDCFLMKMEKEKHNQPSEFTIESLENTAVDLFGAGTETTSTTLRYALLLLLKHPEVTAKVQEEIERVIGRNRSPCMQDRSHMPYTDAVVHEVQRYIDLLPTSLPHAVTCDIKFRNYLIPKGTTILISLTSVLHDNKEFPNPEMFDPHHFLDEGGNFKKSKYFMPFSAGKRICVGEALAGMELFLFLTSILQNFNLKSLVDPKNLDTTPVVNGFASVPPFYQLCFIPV
Chain of Cytochrome P450 2D6 (P10635 whole entry): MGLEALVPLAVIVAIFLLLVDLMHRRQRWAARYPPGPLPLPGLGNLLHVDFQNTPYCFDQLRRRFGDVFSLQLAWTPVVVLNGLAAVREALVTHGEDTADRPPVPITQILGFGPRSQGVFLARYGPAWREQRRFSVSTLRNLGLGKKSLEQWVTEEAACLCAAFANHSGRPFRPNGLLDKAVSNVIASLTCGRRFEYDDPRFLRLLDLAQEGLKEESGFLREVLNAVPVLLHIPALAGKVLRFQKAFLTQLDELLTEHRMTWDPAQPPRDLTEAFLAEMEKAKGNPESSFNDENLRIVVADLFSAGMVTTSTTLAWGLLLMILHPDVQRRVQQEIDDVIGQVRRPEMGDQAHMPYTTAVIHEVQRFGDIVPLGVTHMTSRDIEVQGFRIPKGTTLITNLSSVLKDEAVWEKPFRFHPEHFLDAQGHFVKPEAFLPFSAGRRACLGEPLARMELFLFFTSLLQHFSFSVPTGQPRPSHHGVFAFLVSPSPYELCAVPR
Chain of Cytochrome P450 3A4 (P08684 whole entry): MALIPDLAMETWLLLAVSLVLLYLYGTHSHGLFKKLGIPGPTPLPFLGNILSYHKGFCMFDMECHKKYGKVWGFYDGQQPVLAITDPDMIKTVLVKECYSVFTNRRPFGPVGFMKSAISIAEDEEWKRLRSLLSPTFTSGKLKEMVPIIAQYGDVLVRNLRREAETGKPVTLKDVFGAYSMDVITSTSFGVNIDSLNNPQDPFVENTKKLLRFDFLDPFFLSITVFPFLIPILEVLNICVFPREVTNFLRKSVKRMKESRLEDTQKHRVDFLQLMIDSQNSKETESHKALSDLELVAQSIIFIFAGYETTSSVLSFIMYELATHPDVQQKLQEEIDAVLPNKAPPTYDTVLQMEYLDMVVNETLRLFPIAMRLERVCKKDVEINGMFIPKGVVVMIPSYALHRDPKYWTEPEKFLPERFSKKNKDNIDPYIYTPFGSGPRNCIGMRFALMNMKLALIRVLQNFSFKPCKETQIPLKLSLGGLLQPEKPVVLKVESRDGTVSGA

With `CN(C)CCN(C(=O)c1ccc2ccccc2c1)c1nc2ccc(Br)cc2s1`, the AC50 on CAAX prenyl protease 2 was 4.77 µM (active).

Consider `c1ccc(-c2ccc3c(c2)c2c4n3CCN=C4CCC2)cc1`, for which the figures for the EC50 in data set [1] and in data set [2] were > 38 µM (not active) and 50.1 µM (active), respectively. Moreover, on Cytochrome P450 2C19 (read-out: AC50), the AC50 is 31.6 µM (inconclusive). For the same molecule, the CC50 with Vero was 23.6 µM (active).

As to `Nc1nc(N)c2nc(CNc3ccc(C(=O)N[C@H](CCC(=O)O)C(=O)O)cc3)cnc2n1`, the AC50 result on Cytochrome P450 2C9 is “inconclusive”.

`Cc1ccc(C)c(OCCCCn2ccnc2)c1`: the EC50 in data set [3] is 2.04 µM (active); in data set [4], 4.73 µM (active); in data set [5] it was > 60 µM (not active).

As for `O=C(c1cnc2n(c1=O)CCS2)N1CCN(C(c2ccccc2)c2ccc(Cl)cc2)CC1` (centres undefined), the AC50 on CAAX prenyl protease 2 is 8.81 µM (active).

On to `CS(=O)(=O)c1ccc(Cn2c3c(c4cc(F)cc(F)c42)CCC[C@H]3CC(=O)O)cc1`, for which, on Cytochrome P450 2C9, the AC50 entry is listed as “inconclusive”.

In the case of `O=C(c1cnn(-c2ccccc2)c1)c1ccc2ccccc2c1O`, the AC50 at Cytochrome P450 3A4 was 17.8 µM (inconclusive); at Cytochrome P450 2C9, “inconclusive”; at Cytochrome P450 2D6 it was 7.08 µM (inconclusive).

Take `CCCN(CCC)CCCNc1ccc2nnc(-c3ccc(F)cc3)n2n1`: the EC50 in data set [4] was 0.596 µM (active).

For `O=C1CCCN1CCC1CCN(C2CC(=O)N(c3ccc(Cl)cc3)C2=O)CC1` (centres undefined), the AC50 in data set [6] is 7.56 µM (active).

On to `CCOC(=O)C1=C(N)N=C(N)C1=Nc1ccc(OC)cc1`, for which the CC50 in the data set on Vero was 11.1 µM (active).

On to `C[C@@H]1CCC[C@H](C)N1`, for which the AC50 entry on Cytochrome P450 2C19 and at Cytochrome P450 2C9 was “inconclusive” in each case.

On to `CCOC(=O)C1(CCc2ccccc2)CCN(Cc2csc(C(C)=O)c2)CC1`, for which the EC50 in [4] was 0.841 µM (active).

In the case of `O=C(/C=C/Nc1ccc(F)cc1Br)c1ccccc1`, the EC50 in data set [7] was < 0.16 µM (active); in [8], 0.283 µM (active); in [9] it was 3.37 µM (active). In addition, the IC50 at Protein skinhead-1 is > 100 µM (inactive). Further, the AC50 in the data set with HEK293 was 1.38 µM (active).

Regarding `COC(=O)CN1CN(c2ccccc2)C2(CCN(Cc3ccc4ccccc4c3)CC2)C1=O`, the AC50 entry at Cytochrome P450 2C9 is “inconclusive”; on Cytochrome P450 2D6, 20 µM (inconclusive).

As to `CCCC1COC(Cn2cncn2)(c2ccc(C)cc2)O1` (centres undefined), the AC50 in data set [6] was 0.73 µM (active).

On to `Cn1c(N2CCN(C(=O)Nc3ccc(F)cc3)CC2)nc2ccccc21`, for which the EC50 in data set [4] is 6.68 µM (active).

As to `CC(/C=N/NC(=O)c1[nH]nc2c1CCC2)=C\c1ccccc1`, the EC50 in data set [10] was 0.43 µM (active); in the data set on BJ [11], 1.03 µM (inconclusive); in the data set with BJ [12], 25.5 µM (inconclusive); in the data set on BJ [13], 0.346 µM (inconclusive). Also, in the data set with Vero, the CC50 is < 0.05 µM (active).
